Patent US8829185B2 (Bayer HealthCare LLC, priority 2005, dated 2014)

Biological target: T1, FGFR1-GST (Homo sapiens, UniProt P11362)
T1 construct: GST; made in house
Assay: FGFR-1 TR-FRET biochemical assay
Procedure: FGFR-1 TR-FRET Biochemical Assay
The FGFR-1 Assay was performed on half well 96-well opaque plates (Costar 3915) in a LANCE format. LANCE is a homogenous time resolved fluormetry based application available through Perkin Elmer. For this assay, 50 uL reactions were set up using: 0.6 uM ATP (Sigma), 25 nM poly GT-biotin (CIS BIO International), 2 nM Eu-labelled phospho-Tyr Ab (PY20 PerkinElmer), 10 nM Streptavidin-APC (Perkin Elmer), 5 nM FGFR1-GST (generated by DRT, Bayer Healthcare), 1% DMSO, 50 mM HEPES pH 7.5, 10 mM MgCl2, 0.1 mM EDTA, 0.015% Brij, 0.1 mg/ml BSA, 0.1% B-mercaptoethanol. All reactions were initiated with the addition of enzyme and were left to incubate for one hour at room temperature. Time-resolved fluorescence was then read on a Perkin Elmer VictorV Multilabel counter. The reading protocol uses an excitation wavelength at 340 nm and emission reads at both 615 and 665 nm. Signal was calculated as a ratio: (Fluorescence at 665 nm/Fluorescence at […])*10000 for each well. The background control used for this assay is the signal produced with all assay components excluding ATP. For IC50 generation, compounds were added prior to the enzyme initiation. A 50-fold stock plate was made with compounds serially diluted 1:5 in a 50% DMSO/50% dH2O solution. A 1 μL addition of the stock to the assay wells gave final compound concentrations ranging from 10 μM −0.128 nM in 1% DMSO. The data were expressed as percent inhibition: % inhibition=100−((Signal with inhibitor-background)/(Signal without inhibitor−background))*100.

T1 sequence (P11362 22-822): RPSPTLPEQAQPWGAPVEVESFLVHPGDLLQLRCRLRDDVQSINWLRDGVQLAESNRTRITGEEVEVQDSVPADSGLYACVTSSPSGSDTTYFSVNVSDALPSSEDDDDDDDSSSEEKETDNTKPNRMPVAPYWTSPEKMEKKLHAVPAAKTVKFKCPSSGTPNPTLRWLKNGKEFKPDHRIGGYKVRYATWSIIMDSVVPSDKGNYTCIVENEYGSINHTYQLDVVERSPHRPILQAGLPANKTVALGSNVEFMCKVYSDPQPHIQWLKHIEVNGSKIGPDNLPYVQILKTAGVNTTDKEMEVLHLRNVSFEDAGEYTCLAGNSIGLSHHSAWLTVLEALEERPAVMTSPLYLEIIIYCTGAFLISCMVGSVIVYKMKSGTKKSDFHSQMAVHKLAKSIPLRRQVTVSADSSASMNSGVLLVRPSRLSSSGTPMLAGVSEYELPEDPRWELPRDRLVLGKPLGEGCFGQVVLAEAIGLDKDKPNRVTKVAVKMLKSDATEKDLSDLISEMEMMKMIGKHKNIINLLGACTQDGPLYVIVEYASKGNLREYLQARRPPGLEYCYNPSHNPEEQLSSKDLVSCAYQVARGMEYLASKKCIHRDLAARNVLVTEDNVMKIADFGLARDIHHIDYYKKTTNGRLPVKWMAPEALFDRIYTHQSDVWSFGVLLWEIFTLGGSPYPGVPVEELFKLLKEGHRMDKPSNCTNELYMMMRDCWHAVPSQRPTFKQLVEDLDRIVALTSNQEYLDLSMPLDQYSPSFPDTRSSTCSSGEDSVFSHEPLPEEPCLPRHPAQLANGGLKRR

SMILES: CC(=O)c1c(-c2ccc(NC(=O)Nc3cccc(C(F)(F)F)c3)c(F)c2)c2c(N)ncnn2c1CN1CCOCC1 [Example 58, N-4-[6-acetyl-4-amino-7-(morpholin-4-ylmethyl)pyrrolo[2,1-f][1,2,4]triazin-5-yl]-2-fluorophenyl-N′-[3-(trifluoromethyl)phenyl]urea]
- IC50 (bounds given in nM): < 10 nM

SMILES: N#Cc1c(C(=O)O)c(-c2ccc(NC(=O)Nc3cc(C(F)(F)F)ccn3)cc2)c2c(N)ncnn12 [Example 8, 4-amino-7-cyano-5-{4-[({[4-(trifluoromethyl)pyridin-2-yl]amino}carbonyl)amino]phenyl}pyrrolo[2,1-f][1,2,4]triazine-6-carboxylic acid]
- IC50 (bounds given in nM): > 100 nM
- IC50 (upper bound in μM): < 1000 nM

SMILES: N#CCc1c(-c2ccc(NC(=O)Nc3cc(C(F)(F)F)ccn3)cc2)c2c(N)ncnn2c1CN1CCOCC1 [Example 63, N-{4-[4-amino-6-(cyanomethyl)-7-(morpholin-4-ylmethyl)-pyrrolo[2,1-f][1,2,4]triazin-5-yl]phenyl}-N′-[4-(trifluoromethyl)-pyridin-2-yl]urea]
- IC50 (bounds given in nM): < 10 nM

SMILES: CS(=O)(=O)N1CCN(Cc2c(CC#N)c(-c3ccc(NC(=O)Nc4cc(C(F)(F)F)ccn4)cc3)c3c(N)ncnn23)CC1 [Example 67, N-[4-(4-amino-6-(cyanomethyl)-7-{[4-(methylsulfonyl)piperazin-1-yl]methyl}pyrrolo[2,1-f][1,2,4]triazin-5-yl)phenyl]-N′-[4-(trifluoromethyl)pyridin-2-yl]urea]
- IC50 (bounds given in nM): 10 to 100 nM

SMILES: COCc1c(-c2ccc(NC(=O)Nc3cc(C(F)(F)F)ccc3F)cc2)c2c(N)ncnn2c1C#N [Example 11, N-4-[4-amino-7-cyano-6-(methoxy-methyl)pyrrolo[2,1-f][1,2,4]triazin-5-yl]phenyl-N′-[2-fluoro-5-(trifluoromethyl)-phenyl]urea]
- IC50 (bounds given in nM): > 100 nM
- IC50 (upper bound in μM): < 1000 nM

SMILES: COCc1c(-c2ccc(NC(=O)Nc3cc(C(F)(F)F)ccc3F)cc2)c2c(N)ncnn2c1CN1CCCC1 [Example 14, N-{4-[4-amino-6-(methoxymethyl)-7-(pyrrolidin-1-ylmethyl)pyrrolo[2,1-f][1,2,4]triazin-5-yl]phenyl}-N′-[2-fluoro-5-(trifluoromethyl)phenyl]urea]
- IC50 (bounds given in nM): 10 to 100 nM

SMILES: Cc1ccc(F)c(NC(=O)Nc2ccc(-c3c(Cl)c(CN4CCOCC4)n4ncnc(N)c34)cc2F)c1 [Example 161, N-{4-[4-amino-6-chloro-7-(morpholin-4-ylmethyl)pyrrolo[2,1-f][1,2,4]triazin-5-yl]-2-fluorophenyl}-N′-(2-fluoro-5-methylphenyl)urea]
- IC50 (bounds given in nM): < 10 nM

SMILES: CNCc1c(-c2ccc(NC(=O)Nc3cc(C(F)(F)F)ccc3F)cc2)c2c(N)ncnn2c1CN1CCOCC1 [Example 109, N-4-[4-amino-6-[(methylamino)methyl]-7-(morpholin-4-ylmethyl)pyrrolo[2,1-f][1,2,4]triazin-5-yl]phenyl-N′-[2-fluoro-5-(trifluoromethyl)phenyl]urea]
- IC50 (bounds given in nM): 10 to 100 nM

SMILES: Nc1ncnn2c(CN3CCOCC3)c(C(O)C3CC3)c(-c3ccc(NC(=O)Nc4cc(C(F)(F)F)ccc4F)cc3)c12 (stereo not shown) [Example 106, N-4-[4-amino-6-[cyclopropyl(hydroxy)methyl]-7-(morpholin-4-ylmethyl)pyrrolo[2,1-f][1,2,4]triazin-5-yl]phenyl-N′-[2-fluoro-5-(trifluoromethyl)phenyl]urea]
- IC50 (bounds given in nM): 10 to 100 nM

SMILES: COCc1c(-c2ccc(NC(=O)Nc3cc(C(F)(F)F)ccc3F)cc2)c2c(N)ncnn2c1CNC1CC1 [Example 16, N-{4-[4-amino-7-[(cyclopropylamino)methyl]-6-(methoxymethyl)pyrrolo[2,1-f][1,2,4]triazin-5-yl]phenyl}-N′-[2-fluoro-5-(trifluoromethyl)phenyl]urea]
- IC50 (bounds given in nM): 10 to 100 nM

SMILES: CCc1c(-c2ccc(NC(=O)Nc3cc(C(F)(F)F)ccn3)cc2)c2c(N)ncnn2c1CN1CCOCC1 [Example 148, N-{4-[4-amino-6-ethyl-7-(morpholin-4-ylmethyl)pyrrolo[2,1-f][1,2,4]triazin-5-yl]phenyl}-N′-[4-(trifluoromethyl)pyridin-2-yl]urea]
- IC50 (bounds given in nM): 10 to 100 nM

SMILES: CC(=O)c1c(-c2ccc(NC(=O)Nc3cc(C(F)(F)F)ccn3)cc2)c2c(N)ncnn2c1CN1CCOCC1 [Example 88, N-{4-[6-acetyl-4-amino-7-(morpholin-4-ylmethyl)pyrrolo[2,1-f][1,2,4]triazin-5-yl]phenyl}-N′-[4-(trifluoromethyl)-pyridin-2-yl]urea]
- IC50 (bounds given in nM): 10 to 100 nM

SMILES: COCCNCc1c(-c2ccc(NC(=O)Nc3cc(C(F)(F)F)ccc3F)cc2)c2c(N)ncnn2c1CN1CCOCC1 [Example 108, N-4-[4-amino-6-[(2-methoxyethyl)amino]methyl-7-(morpholin-4-ylmethyl)pyrrolo[2,1-f][1,2,4]triazin-5-yl]phenyl-N′-[2-fluoro-5-(trifluoromethyl)phenyl]urea]
- IC50 (bounds given in nM): > 100 nM
- IC50 (upper bound in μM): < 1000 nM

SMILES: Nc1ncnn2c(CN3CCOCC3)c(Cl)c(-c3ccc(NC(=O)Nc4cccc(C(F)(F)F)c4)c(Cl)c3)c12 [Example 160, N-{4-[4-amino-6-chloro-7-(morpholin-4-ylmethyl)pyrrolo[2,1-f][1,2,4]triazin-5-yl]-2-chlorophenyl}-N′-[3-(trifluoromethyl)phenyl]urea]
- IC50 (bounds given in nM): 10 to 100 nM

SMILES: COCc1c(-c2ccc(NC(=O)Nc3cc(C(F)(F)F)ccn3)cc2)c2c(N)ncnn2c1CN1CCOCC1 [Example 35, N-4-[4-amino-6-(methoxymethyl)-7-(morpholin-4-ylmethyl)pyrrolo[2,1-f][1,2,4]triazin-5-yl]phenyl-N′-[4-(trifluoromethyl)pyridin-2-yl]urea]
- IC50 (bounds given in nM): 10 to 100 nM

SMILES: CN1CCN(Cc2c(C#N)c(-c3ccc(NC(=O)Nc4cc(C(F)(F)F)ccc4F)cc3)c3c(N)ncnn23)CC1 [Example 55, N-(4-4-amino-6-cyano-7-[(4-methylpiperazin-1-yl)methyl]-pyrrolo[2,1-f][1,2,4]triazin-5-ylphenyl)-N′-[2-fluoro-5-(trifluoromethyl)-phenyl]urea]
- IC50 (bounds given in nM): 10 to 100 nM

SMILES: Nc1ncnn2c(CN3CCOCC3)c(/C=N/O)c(-c3ccc(NC(=O)Nc4cc(C(F)(F)F)ccc4F)cc3)c12 [Example 102, N-4-[4-amino-6-[(E)-(hydroxyimino)methyl]-7-(morpholin-4-ylmethyl)pyrrolo[2,1-f][1,2,4]triazin-5-yl]phenyl-N′-[2-fluoro-5-(trifluoromethyl)phenyl]urea]
- IC50 (bounds given in nM): < 10 nM

SMILES: CC(C)(O)c1c(-c2ccc(NC(=O)Nc3cc(C(F)(F)F)ccn3)cc2)c2c(N)ncnn2c1CN1CCOCC1 [Example 86]
- IC50 (bounds given in nM): > 100 nM
- IC50 (upper bound in μM): < 1000 nM

SMILES: CON(C)C(=O)c1c(-c2ccc(NC(=O)Nc3cc(C(F)(F)F)ccn3)cc2)c2c(N)ncnn2c1CN1CCN(C)CC1 [Example 94, 4-amino-N-methoxy-N-methyl-7-[(4-methylpiperazin-1-yl)methyl]-5-{4-[({[4-(trifluoromethyl)pyridin-2-yl]amino}-carbonyl)amino]-phenyl}pyrrolo[2,1-f][1,2,4]triazine-6-carboxamide]
- IC50 (bounds given in nM): > 100 nM
- IC50 (upper bound in μM): < 1000 nM

SMILES: Cc1c(-c2cc(F)c(NC(=O)Nc3cc(C(F)(F)F)ccc3F)cc2F)c2c(N)ncnn2c1CN1CCOCC1 [Example 123, N-{4-[4-amino-6-methyl-7-(morpholin-4-ylmethyl)pyrrolo[2,1-f][1,2,4]triazin-5-yl]-2,5-difluorophenyl}-N′-[2-fluoro-5-(trifluoromethyl)-phenyl]urea]
- IC50 (bounds given in nM): 10 to 100 nM

SMILES: COCc1c(-c2ccc(NC(=O)Nc3cccc(C(F)(F)F)n3)cc2)c2c(N)ncnn2c1CN1CCOCC1 [Example 50]
- IC50 (bounds given in nM): > 100 nM
- IC50 (upper bound in μM): < 1000 nM

SMILES: Cc1cc(-c2c(C)c(CN3CCOCC3)n3ncnc(N)c23)ccc1NC(=O)Nc1cc(C(F)(F)F)ccn1 [Example 119, N-{4-[4-amino-6-methyl-7-(morpholin-4-ylmethyl)pyrrolo[2,1-f][1,2,4]triazin-5-yl]-2-methylphenyl}-N′-[4-(trifluoromethyl)pyridin-2-yl]urea]
- IC50 (bounds given in nM): < 10 nM

SMILES: COCc1c(-c2ccc(NC(=O)Nc3cc(C)ccc3F)c(F)c2)c2c(N)ncnn2c1CN1CCOCC1 [Example 131, N-{4-[4-amino-6-(methoxymethyl)-7-(morpholin-4-ylmethyl)-pyrrolo[2,1-f][1,2,4]triazin-5-yl]-2-fluorophenyl}-N′-(2-fluoro-5-methyl-phenyl)urea]
- IC50 (bounds given in nM): < 10 nM

SMILES: Nc1ncnn2c(CN3CCOCC3)c(-c3cnco3)c(-c3ccc(NC(=O)Nc4cc(C(F)(F)F)ccc4F)cc3)c12 [Example 26, N-4-[4-amino-7-(morpholin-4-ylmethyl)-6-(1,3-oxazol-5-yl)pyrrolo[2,1-f][1,2,4]triazin-5-yl]phenyl-N′-[2-fluoro-5-(trifluoromethyl)phenyl]urea]
- IC50 (bounds given in nM): < 10 nM

SMILES: COCc1c(-c2ccc(NC(=O)Nc3cc(C(F)(F)F)ccc3F)cc2)c2c(N)ncnn2c1CN1CCN(C(C)=O)CC1 [Example 21, N-{4-[7-[(4-acetylpiperazin-1-yl)methyl]-4-amino-6-(methoxymethyl)pyrrolo[2,1-f][1,2,4]triazin-5-yl]phenyl}-N′-[2-fluoro-5-(trifluoromethyl)phenyl]urea]
- IC50 (bounds given in nM): 10 to 100 nM
